Test results from article PMC12335538 (2025).

Tested on: 62 CA8 (RNA, riboswitch) GGAGACCGAAAGCUGGGGACGACCCCAGAAAGACCAAAAGCUGGGGACGACCCCAGAAAGACCGA
Assay: in-line probing
Conditions: 20 mM MgCl2, 100 mM KCl; 50 mM Tris pH 8.3, room temperature, 48 h; apparent; mean of three replicates; Hill 1.50 ± 0.3

N=C(N)N
KD: 111 ± 3 µM
